# Test results from article PMC8966651, “PKPD Modeling of the Inoculum Effect of Acinetobacter baumannii on Polymyxin B in vivo” (Frontiers in Pharmacology, 2022).
# Counter-ions that a name gives are not always drawn. Like-named read-outs stand apart in the source and are kept apart here. Bridge positions count the residues as written; N and C are the ends. Square brackets hold non-standard residues; d marks the D form. Peptide text beside a SMILES is read from it. * marks the point of attachment. X1 = CC[C@H](C)CCCCC(=O)*; Dab = NCC[C@H](N)C(=O)O
# What was measured:
# [1] = PMB plasma protein binding by ultrafiltration (Centrifree) of plasma from infected mice; assay type: in vitro ADME; conditions: mouse plasma
# Procedure: The PK of PMB was determined in neutropenic mice infected with the bacterial inoculum size of 10^6 CFU/thigh (n = 56). Mice were anesthetized by isoflurane (AbbVie, Rungis, France) inhalation (3%) for 5 min at each sampling time. Blood samples were collected by intracardiac puncture into heparinized tubes up to 24 h after PMB administration for a total of 7 time points per dose level (n = 3 animals per time point). Plasma was separated from the whole blood after centrifugation at 4,000 rpm for 10 min at 4°C and divided into two samples. The first sample was used to determine total PMB concentrations and the second one (0.15 ml) was ultrafiltered (4000 rpm for 30 min at room temperature) using Centrifree® ultrafiltration devices from Millipore (Merck KGaA) to determine unbound PMB concentrations and consequently protein binding. The non-specific binding of PMB to the membrane of the Centrifree® ultrafiltration devices ([Sader et al., 2012]) was determined by ultrafiltration of PMB solutions in phosphate buffer (pH7.2) at concentrations ranging from 0.2 to 7.5 mg/L and was used to correct ultrafiltrate concentrations. Plasma samples and ultrafiltrates were stored at −20°C until further analysis. Total and unbound PMB concentrations were determined by a liquid chromatography tandem mass spectrometry (LS-MS/MS) method (Supplemental Material).
# A saturable non-specific binding (NSB) of PMB to the ultrafiltration membrane, translating to a non-linear decrease of PMB NSB when PMB concentration increased, was observed (Supplementary Figure S1) and could be described by the following equation: NSB = 0.47−0.16×ln(UF) (3) Where NSB corresponds to the non-specific binding (%) and UF to PMB concentrations in ultrafiltrates (mg/L). Equation 3 was used to correct ultrafiltrates concentrations, as follows: Unbound concentrations = UF/1−NSB (4)
# A. baumannii = conditions: ref Akrong et al., 2021, cited from earlier work; for increase of in vitro IK-HL: starting inoculum from 10^5 to 10^7 CFU/ml
# Text: High bacterial counts may alter antibiotherapy success due to an inoculum effect (IE) ([Chastre and Fagon, 2002]; [Koenig and Truwit, 2006]; [Kalanuria et al., 2014]), corresponding to a reduction of the antibiotic activity as bacterial count increases ([Harada et al., 2014]; [Lenhard and Bulman, 2019]). This phenomenon has been described in vitro for ß-lactam antibiotics used against ß-lactamases-producing bacteria such as Escherichia coli and Klebsiella pneumoniae ([Bedenić et al., 2001]; [Harada et al., 2014]; [Smith and Kirby, 2018]; [Lenhard and Bulman, 2019]). It has also been reported i ... || An innovative aspect of this study was the refinement of a PKPD model, based on the model developed after in vitro TK experiments conducted with A. baumannii and PMB ([Akrong et al., 2021]). […] The different growth behavior between in vitro and in vivo has been associated in literature ... || In both in vitro and in vivo PKPD models, a decrease in PMB killing effect was related to the baseline inoculum and was modeled either as a decrease of the in vivo PMB killing rate constant (kslope) or as an increase of the in vitro half-maximal effective concentration of PMB (EC50), making PMB IE difficult to compare between in vitro and in vivo. In vivo IK-HL were derived from Equation 5 for each starting inoculum and various PMB concentrations to better illustrate the consequences of IE on PMB activity (Table 3).
# [2] = SC, highest dose 32 mg/kg; ref Landersdorfer et al., 2018; cited from earlier work
# Procedure: These new study results can be compared with those previously obtained in relatively similar conditions, at least from PK standpoint ([Landersdorfer et al., 2018]). In both studies PMB was administered subcutaneously to neutropenic mice infected with K. pneumoniae ([Landersdorfer et al., 2018]) or A. baumannii, leading to saturable absorption rate. However although Landersdorfer et al. used a model with parallel linear and saturable absorption, an Emax model was sufficient to provide satisfactory fit of our data. Noticeably, while this nonlinear absorption was important to consider for PK and ...
structure (smiles),measurement,setting,value
"CC[C@H](C)CCCCC(=O)N[C@@H](CCN)C(=O)N[C@H](C(=O)N[C@@H](CCN)C(=O)N[C@H]1CCNC(=O)[C@H]([C@@H](C)O)NC(=O)[C@H](CCN)NC(=O)[C@H](CCN)NC(=O)[C@H](CC(C)C)NC(=O)[C@@H](Cc2ccccc2)NC(=O)[C@H](CCN)NC1=O)[C@@H](C)O [PMB, Polymyxin B sulfate] (X1-[Dab]T[Dab][Dab][Dab][dF]L[Dab][Dab]T; lactam 4-C)",fraction unbound,"[1]; male, Swiss RjOrl, sc, infected mice, ultrafiltration 4000 rpm 30 min room temperature, corrected for non-specific binding to membrane, LC-MS/MS, model estimate (%RSE)",0.166
same,unbound fraction,"[1]; infected mice, ultrafiltration corrected for non-specific binding, model estimate",17%
same,plasma protein binding,"[1]; ultrafiltration, this study",~80%
same,in vitro IK-HL,"A. baumannii; PMB 0.25 mg/L, starting inoculum 10^5 CFU/ml",10 min
same,in vitro IK-HL,"A. baumannii; PMB 0.25 mg/L, starting inoculum 10^7 CFU/ml",24 min
same,increase of in vitro IK-HL,A. baumannii; PMB 0.25 mg/L,140%
same,in vitro IK-HL,"A. baumannii; PMB 4 mg/L, starting inoculum 10^5 CFU/ml",5 min
same,in vitro IK-HL,"A. baumannii; PMB 4 mg/L, starting inoculum 10^7 CFU/ml",8 min
same,increase of in vitro IK-HL,A. baumannii; PMB 4 mg/L,60%
same,increase of the PMB concentration to reach 50% of maximal effect (EC50),"A. baumannii; initial inoculum increased from 10^5 to 10^8 CFU/ml, static time-kill",17 fold
same,peak concentrations at the highest dose,[2],~20 mg/L
